Data as given in ChEMBL document CHEMBL1139273, “Aryl aminopyrazole benzamides as oral non-steroidal selective glucocorticoid receptor agonists” (Bioorg Med Chem Lett, 2009).

Legend:
[1] = Inhibition of TNF-induced NF-kappaB activation in human A549 cells after 15 hrs; conditions: Homo sapiens, A549, 15 h, read-out: pIC50 (converted)
A549 = test: Inhibition of TNF-induced NFkappaB activation in human A549 cells after 15 hrs relative to Dexamethasone; assay type: cell-based; parameters: scale not given: the % may be the effect or the level left
Cytochrome P450 1A2 = target: T1, Cytochrome P450 1A2 (Homo sapiens, UniProt P05177); test: Inhibition of CYP1A2; assay type: ADME
T1 sequence (P05177 whole entry): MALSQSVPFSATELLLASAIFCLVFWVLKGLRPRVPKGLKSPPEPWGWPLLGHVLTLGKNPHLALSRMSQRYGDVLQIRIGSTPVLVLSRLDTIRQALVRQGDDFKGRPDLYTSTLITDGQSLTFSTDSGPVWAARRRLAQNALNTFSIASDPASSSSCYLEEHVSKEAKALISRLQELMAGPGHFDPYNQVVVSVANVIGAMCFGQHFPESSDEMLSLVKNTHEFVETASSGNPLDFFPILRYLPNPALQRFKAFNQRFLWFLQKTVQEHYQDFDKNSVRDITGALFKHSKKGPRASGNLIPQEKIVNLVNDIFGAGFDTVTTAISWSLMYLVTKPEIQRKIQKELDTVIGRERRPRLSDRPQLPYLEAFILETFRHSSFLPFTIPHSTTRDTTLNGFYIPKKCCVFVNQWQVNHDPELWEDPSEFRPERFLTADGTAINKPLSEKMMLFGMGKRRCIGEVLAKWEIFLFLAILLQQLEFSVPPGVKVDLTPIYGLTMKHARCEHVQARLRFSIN

Cytochrome P450 2C19 = Cytochrome P450 2C19 (Homo sapiens, UniProt P33261); test: Inhibition of CYP2C19; assay type: ADME
Cytochrome P450 2C19, sequence (P33261 whole entry): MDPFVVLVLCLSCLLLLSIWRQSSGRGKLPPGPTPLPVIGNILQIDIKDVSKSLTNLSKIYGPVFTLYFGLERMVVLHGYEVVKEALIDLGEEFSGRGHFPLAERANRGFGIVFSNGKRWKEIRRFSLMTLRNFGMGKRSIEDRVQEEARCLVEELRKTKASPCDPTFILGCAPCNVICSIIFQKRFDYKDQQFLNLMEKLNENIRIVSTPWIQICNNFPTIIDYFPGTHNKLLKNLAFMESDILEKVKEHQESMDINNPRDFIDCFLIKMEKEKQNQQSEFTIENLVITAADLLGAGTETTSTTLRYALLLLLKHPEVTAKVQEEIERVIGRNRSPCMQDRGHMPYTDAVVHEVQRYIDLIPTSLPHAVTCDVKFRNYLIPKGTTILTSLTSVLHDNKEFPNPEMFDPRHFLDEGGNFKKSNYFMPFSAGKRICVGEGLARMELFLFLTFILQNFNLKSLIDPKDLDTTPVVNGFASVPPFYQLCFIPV

Cytochrome P450 2C9 = Cytochrome P450 2C9 (Homo sapiens, UniProt P11712); test: Inhibition of CYP2C9; assay type: ADME
Cytochrome P450 2C9, sequence (P11712 whole entry): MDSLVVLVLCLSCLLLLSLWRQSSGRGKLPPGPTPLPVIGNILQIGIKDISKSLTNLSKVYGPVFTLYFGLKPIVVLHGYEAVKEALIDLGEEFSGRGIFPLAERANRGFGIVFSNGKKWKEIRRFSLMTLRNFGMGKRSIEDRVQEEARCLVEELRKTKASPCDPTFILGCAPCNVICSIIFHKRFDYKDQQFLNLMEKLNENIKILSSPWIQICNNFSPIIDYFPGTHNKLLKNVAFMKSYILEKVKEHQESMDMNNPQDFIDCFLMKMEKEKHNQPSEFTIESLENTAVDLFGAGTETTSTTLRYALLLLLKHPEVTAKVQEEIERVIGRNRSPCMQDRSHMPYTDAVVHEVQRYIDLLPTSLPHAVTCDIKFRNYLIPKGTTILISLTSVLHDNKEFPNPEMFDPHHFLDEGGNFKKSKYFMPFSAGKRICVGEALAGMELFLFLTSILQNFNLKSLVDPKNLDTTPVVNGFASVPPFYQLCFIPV

Cytochrome P450 2D6 = Cytochrome P450 2D6 (Homo sapiens, UniProt P10635); test: Inhibition of CYP2D6; assay type: ADME
Cytochrome P450 2D6, sequence (P10635 whole entry): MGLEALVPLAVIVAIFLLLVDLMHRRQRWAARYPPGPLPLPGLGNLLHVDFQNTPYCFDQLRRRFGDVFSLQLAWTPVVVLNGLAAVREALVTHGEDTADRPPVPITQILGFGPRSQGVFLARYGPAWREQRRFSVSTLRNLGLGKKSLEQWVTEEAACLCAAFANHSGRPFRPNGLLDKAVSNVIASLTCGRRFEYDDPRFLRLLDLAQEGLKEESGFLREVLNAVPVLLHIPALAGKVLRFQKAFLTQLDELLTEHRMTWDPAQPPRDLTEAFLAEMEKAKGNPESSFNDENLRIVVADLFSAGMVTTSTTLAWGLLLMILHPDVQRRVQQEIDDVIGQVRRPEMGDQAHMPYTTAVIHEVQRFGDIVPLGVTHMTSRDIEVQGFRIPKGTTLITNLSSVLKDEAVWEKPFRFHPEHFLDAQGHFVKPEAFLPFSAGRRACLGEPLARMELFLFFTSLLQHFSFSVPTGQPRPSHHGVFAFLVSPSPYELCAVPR

Albumin = Albumin (Homo sapiens, UniProt P02768); test: Binding affinity to human serum albumin by fast gradient HPLC; assay type: ADME; conditions: isolated protein
Albumin, sequence (P02768 whole entry): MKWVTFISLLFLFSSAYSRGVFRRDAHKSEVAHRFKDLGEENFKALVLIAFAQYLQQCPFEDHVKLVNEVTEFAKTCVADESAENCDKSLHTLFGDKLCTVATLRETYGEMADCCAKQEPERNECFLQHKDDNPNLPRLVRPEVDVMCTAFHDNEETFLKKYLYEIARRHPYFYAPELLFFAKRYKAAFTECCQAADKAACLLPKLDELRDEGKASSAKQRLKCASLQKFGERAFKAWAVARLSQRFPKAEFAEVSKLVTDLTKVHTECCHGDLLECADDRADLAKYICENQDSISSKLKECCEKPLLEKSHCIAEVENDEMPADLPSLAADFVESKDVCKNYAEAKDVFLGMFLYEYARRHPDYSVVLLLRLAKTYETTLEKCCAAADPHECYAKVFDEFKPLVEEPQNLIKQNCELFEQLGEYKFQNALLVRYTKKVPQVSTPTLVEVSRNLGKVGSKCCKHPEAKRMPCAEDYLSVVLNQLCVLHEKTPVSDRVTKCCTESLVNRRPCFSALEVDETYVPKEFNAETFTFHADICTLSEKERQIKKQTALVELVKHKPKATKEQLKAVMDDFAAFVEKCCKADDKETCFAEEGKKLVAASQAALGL

[2] = Protein binding in human plasma by ultrafiltration; assay type: ADME, cell-free; conditions: read-out: PPB (converted)
[3] = Clearance in Sprague-Dawley rat at 1 mg/kg, iv and 1 mg/kg, po; assay type: ADME, organism-based; conditions: in vivo
[4] = Volume of distribution at steady state in Sprague-Dawley rat at 1 mg/kg, iv and 1 mg/kg, po; assay type: ADME, organism-based; conditions: in vivo, read-out: Vdss
[5] = Oral bioavailability in Sprague-Dawley rat at 1 mg/kg; assay type: ADME, organism-based; conditions: in vivo
Glucocorticoid receptor [6] = target: T2, Glucocorticoid receptor (Homo sapiens, UniProt P04150)
T2 sequence (P04150 whole entry): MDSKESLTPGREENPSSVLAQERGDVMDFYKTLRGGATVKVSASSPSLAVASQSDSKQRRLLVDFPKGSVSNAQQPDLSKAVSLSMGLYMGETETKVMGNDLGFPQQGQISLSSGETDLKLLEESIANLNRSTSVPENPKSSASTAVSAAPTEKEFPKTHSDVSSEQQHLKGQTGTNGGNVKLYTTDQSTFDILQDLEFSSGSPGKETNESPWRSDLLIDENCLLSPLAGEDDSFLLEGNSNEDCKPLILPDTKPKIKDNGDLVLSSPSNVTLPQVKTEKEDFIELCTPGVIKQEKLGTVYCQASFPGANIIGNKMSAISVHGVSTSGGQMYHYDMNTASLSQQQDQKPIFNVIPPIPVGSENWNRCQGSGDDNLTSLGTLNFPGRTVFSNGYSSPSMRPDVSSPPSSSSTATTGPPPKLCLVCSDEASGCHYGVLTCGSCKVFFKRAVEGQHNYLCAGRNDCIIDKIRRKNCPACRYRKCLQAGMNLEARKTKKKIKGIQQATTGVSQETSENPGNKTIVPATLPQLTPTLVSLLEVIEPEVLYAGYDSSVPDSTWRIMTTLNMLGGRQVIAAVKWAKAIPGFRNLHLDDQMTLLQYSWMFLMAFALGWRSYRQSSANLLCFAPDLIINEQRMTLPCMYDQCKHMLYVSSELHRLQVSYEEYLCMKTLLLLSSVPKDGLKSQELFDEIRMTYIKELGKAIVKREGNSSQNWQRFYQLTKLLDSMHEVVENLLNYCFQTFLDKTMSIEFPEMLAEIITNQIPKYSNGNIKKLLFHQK
Description: Displacement of fluorescent labelled Dexamethasone from glucocorticoid receptor

Glucocorticoid receptor [7] = target: T2, Glucocorticoid receptor; remark: listed apart in the source
Description: Agonist activity at human glucocorticoid receptor in human A549 cells assessed as transcriptional activity by MMTV luciferase reporter gene assay

Cytochrome P450 3A4 = Cytochrome P450 3A4 (Homo sapiens, UniProt P08684)
Cytochrome P450 3A4, sequence (P08684 whole entry): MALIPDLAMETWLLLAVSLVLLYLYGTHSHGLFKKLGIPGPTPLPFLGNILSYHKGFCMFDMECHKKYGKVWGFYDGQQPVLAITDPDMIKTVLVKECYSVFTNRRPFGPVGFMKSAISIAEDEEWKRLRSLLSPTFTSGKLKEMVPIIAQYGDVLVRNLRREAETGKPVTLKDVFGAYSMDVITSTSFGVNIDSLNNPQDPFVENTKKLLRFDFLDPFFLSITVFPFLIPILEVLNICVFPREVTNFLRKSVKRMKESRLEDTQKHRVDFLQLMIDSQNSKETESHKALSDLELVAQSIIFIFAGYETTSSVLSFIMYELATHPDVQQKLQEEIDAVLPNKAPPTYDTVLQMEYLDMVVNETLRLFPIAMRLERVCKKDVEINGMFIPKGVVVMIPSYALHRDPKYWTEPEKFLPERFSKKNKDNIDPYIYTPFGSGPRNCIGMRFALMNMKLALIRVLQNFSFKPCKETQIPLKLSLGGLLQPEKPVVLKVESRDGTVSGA

Row | IC50 [1] | IC50 (Cytochrome P450 1A2) | IC50 (Cytochrome P450 2C19) | IC50 (Cytochrome P450 2C9) | IC50 (Cytochrome P450 2D6) | Activity (Albumin) | fraction unbound [2] | clearance [3] | Vd [4] | bioavailability [5] | IC50 (Glucocorticoid receptor [6]) | EC50 (Glucocorticoid receptor [7]) | IC50 (Cytochrome P450 3A4) | SMILES | Activity (A549)
1 | 0.01 µM | 100 µM | 8 µM | 4 µM | 20 µM | 93% | 0.07 | 1.26 L/h/kg | 2.6 L/kg | 39% | 0.02 µM | 0.0501 µM | 0.5 µM | Nc1c(C(=O)NCC(O)(CN(CCF)C(=O)c2c(F)cccc2F)C(F)(F)F)cnn1-c1ccc(F)cc1 (racemic) | 94%
2 | 0.00251 µM | 100 µM | 18 µM | 8 µM | 74 µM | 93% | 0.03 | 1.62 L/h/kg | 2.8 L/kg | 36% | 0.00794 µM | 0.00794 µM | 2 µM | CCN(CC(O)(CNC(=O)c1cnn(-c2ccc(F)cc2)c1N)C(F)(F)F)C(=O)c1c(F)cccc1F (stereo not drawn) | 104%
